# Source: patent US9163021B2, “Pyrrolo[3,2-c]pyridine tropomyosin-related kinase inhibitors” (Pfizer Limited, priority 2012, dated 2015)
# pIC50: −log10 of the molar value.
# Biological target: TRKA (Homo sapiens (Human), UniProt P04629)
# Test: Isolated TRK enzyme assay (HTRF KinEASE-TK), PV3144 TrkA enzyme assay
# Format: biochemical
# Settings: arithmetic mean where more than one reading
# Experimental: Isolated TRK Enzyme assays use the HTRF KinEASE-TK kit (Cisbio Cat#62TK0PEJ) with recombinant His-tagged cytoplasmic domains of each TRK receptor sourced from Invitrogen (see table below). This activity-assay measures the phosphorylation of tyrosine residues within a substrate from the HTRF kit which has been validated by Cisbio for a variety of tyrosine kinases including the TRK receptors.
# 0.5 mM stock solutions of test compounds are prepared and serially diluted in 100% DMSO. A standard curve using the compound of Example 135 disclosed in WO2005/116035 of 150 uM is also prepared on each test plate. High percentage effect (HPE) is defined by 150 uM (using the compound of Example 135 as disclosed in WO2005/116035) and 0% effect (ZPE) is defined by 100% DMSO. Greiner low volume black plates containing 0.2 ul of serially diluted compound, standard and HPE/ZPE are created using the Bravo nanoliter dispenser.
# 1× enzyme buffer is prepared from 5× Enzymatic Buffer from the Cisbio KinEASE TK kit using MilliQ water. The buffer is then supplemented with 10 mM MgCI and 2 mM DTT (both from Sigma). In the case of TRKB, the buffer is also supplemented with 125 nM Supplement Enzymatic Buffer (SEB) from the Cisbio kit.
# 2× FAC of enzyme and 2× FAC ATP diluted in 1× complete enzyme buffer is incubated at room temperature for 20 minutes to preactivate the enzyme. Following this preactivation step, 5 ul/well of enzyme+ATP mix is added using a Multidrop Micro to the assay plate, spotted with 0.2 ul 100% DMSO compound. This is left for 20 mins at room temperature before adding 5 ul of 2 uM TK-substrate-Biotin (from the Cisbio kit) diluted in 1× enzyme buffer (1 uM FAC) using the Multidrop Micro. The reaction is incubated at room temperature for the optimized assay reaction time (see table). The reaction is stopped by adding 10 ul/well HTRF Detection Buffer containing 0.25 uM Streptavidin-XL665 (0.125 uM FAC) and 1:200 TK Antibody-Cryptate using a Multidrop.
# After the Detection Reagent addition, plates are covered and incubated at room temperature for 60 minutes. HTRF signal is read using an Envision reader, measured as a ratio of emissions at two different wavelengths, 620 nm and 665 nm. […] Test compound data are expressed as percentage inhibition defined by HPE and ZPE values for each plate. Percentage inhibition in the presence of test compound is plotted against compound concentration on a log scale to determine an IC50 from the resultant sigmoid curve.
# Where more than one reading was taken, the arithmetic mean is presented.
# Sequence of TRKA (P04629 441-796): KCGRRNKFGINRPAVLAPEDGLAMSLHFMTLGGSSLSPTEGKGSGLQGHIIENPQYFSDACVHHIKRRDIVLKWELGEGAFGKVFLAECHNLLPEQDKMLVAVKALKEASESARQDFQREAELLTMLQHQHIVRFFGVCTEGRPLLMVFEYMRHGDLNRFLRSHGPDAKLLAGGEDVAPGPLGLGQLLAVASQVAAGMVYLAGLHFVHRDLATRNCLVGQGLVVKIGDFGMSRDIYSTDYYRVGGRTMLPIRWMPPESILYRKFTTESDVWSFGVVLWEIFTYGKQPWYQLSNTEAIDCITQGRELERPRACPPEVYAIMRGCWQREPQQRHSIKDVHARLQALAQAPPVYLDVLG
row,pIC50,SMILES
1,5.01,"CC(C)n1cc(C(=O)c2ccnc(NC(=O)Cc3nnnn3C)c2)c2cnccc21 [Example 192, 2-(1-methyl-1H-tetrazol-5-yl)-N-(4-{[1-(propan-2-yl)-1H-pyrrolo[3,2-c]pyridin-3-yl]carbonyl}pyridin-2-yl)acetamide]"
2,8.21,"CC(C)n1cc(C(=O)c2ccnc(NC(=O)Cc3ccc(Cl)cn3)c2)c2cnccc21 [Example 82, 2-(5-chloropyridin-2-yl)-N-(4-{[1-(propan-2-yl)-1H-pyrrolo[3,2-c]pyridin-3-yl]carbonyl}pyridin-2-yl)acetamide]"
3,6.70,"O=C(Cc1cccc(Cl)c1)Nc1cc(C(=O)c2cn(CCO)c3ccncc23)ccn1 [Example 149, 2-(3-chlorophenyl)-N-(4-{[1-(2-hydroxyethyl)-1H-pyrrolo[3,2-c]pyridin-3-yl]carbonyl}pyridin-2-yl)acetamide]"
4,7.61,"CC(C)n1cc(C(=O)c2ccnc(NC(=O)Cc3ccc(C#N)c(C(F)(F)F)c3)c2)c2cnccc21 [Example 233, 2-[4-cyano-3-(trifluoromethyl)phenyl]-N-(4-{[1-(propan-2-yl)-1H-pyrrolo[3,2-c]pyridin-3-yl]carbonyl}pyridin-2-yl)acetamide]"
5,7.52,"O=C(Nc1cc(C(=O)c2cn(CCO)c3ccncc23)ccn1)c1cccc(OC(F)(F)F)c1 [Example 142, N-(4-{[1-(2-hydroxyethyl)-1H-pyrrolo[3,2-c]pyridin-3-yl]carbonyl}pyridin-2-yl)-3-(trifluoromethoxy)benzamide]"
6,6.28,"O=C(Cc1coc(C2CC2)n1)Nc1cc(C(=O)c2cn(C3COC3)c3ccncc23)ccn1 [Example 197, 2-(2-cyclopropyl-1,3-oxazol-4-yl)-N-(4-{[1-(oxetan-3-yl)-1H-pyrrolo[3,2-c]pyridin-3-yl]carbonyl}pyridin-2-yl)acetamide]"
7,7.89,"CC(C)(CO)n1cc(C(=O)c2cc(NC(=O)Cc3ccc(C(F)(F)F)cc3)ccn2)c2cnccc21 [Example 231, N-(2-{[1-(1-hydroxy-2-methylpropan-2-yl)-1H-pyrrolo[3,2-c]pyridin-3-yl]carbonyl}pyridin-4-yl)-2-[4-(trifluoromethyl)phenyl]acetamide]"
8,6.64,"O=C(Cc1ccc(F)cc1)Nc1cc(C(=O)c2cn(C3COC3)c3ccncc23)ccn1 [Example 204, 2-(4-fluorophenyl)-N-(4-{[1-(oxetan-3-yl)-1H-pyrrolo[3,2-c]pyridin-3-yl]carbonyl}pyridin-2-yl)acetamide]"
9,6.90,"CC(CO)n1cc(C(=O)c2cncc(NC(=O)Cc3ccc(C#N)cc3)c2)c2cnccc21 (single isomer, unassigned) [Example 72, 2-(4-cyanophenyl)-N-(5-{[1-(1-hydroxypropan-2-yl)-1H-pyrrolo[3,2-c]pyridin-3-yl]carbonyl}pyridin-3-yl)acetamide]"

# More lines, now with the values behind:
row,SMILES,pIC50
1,"Cc1nc(C)n(CC(=O)Nc2cc(C(=O)c3cn(C(C)C)c4ccncc34)ccn2)n1 [Example 112, 2-(3,5-dimethyl-1H-1,2,4-triazol-1-yl)-N-(4-{[1-(propan-2-yl)-1H-pyrrolo[3,2-c]pyridin-3-yl]carbonyl}pyridin-2-yl)acetamide]",5.29
2,"Cc1cc(CC(=O)Nc2cncc(C(=O)c3cn(C(C)C)c4ccncc34)c2)[nH]n1 [Example 136, 2(3-methyl-1H-pyrazol-5-yl)-N-(5-{[1-(propan-2-yl)-1H-pyrrolo[3,2-c]pyridin-3-yl]carbonyl}pyridin-3-yl)acetamide]",6.57
3,"CC(C)(CO)n1cc(C(=O)c2cncc(NC(=O)Cc3ccc(Cl)cn3)c2)c2cnccc21 [Example 8, 2-(5-Chloro-pyridin-2-yl)-N-{5-[1-(2-hydroxy-1,1-dimethyl-ethyl)-1H-pyrrolo[3,2-c]pyridine-3-carbonyl]-pyridin-3-yl}-acetamide]",7.41
4,"CC(CO)n1cc(C(=O)c2cncc(NC(=O)Cc3ccc(Cl)cc3)c2)c2cncc(F)c21 (single isomer, unassigned) [Example 223, 2-(4-chlorophenyl)-N-(5-{[7-fluoro-1-(1-hydroxypropan-2-yl)-1H-pyrrolo[3,2-c]pyridin-3-yl]carbonyl}pyridin-3-yl)acetamide]",7.56
5,"Cc1cc(C)n(CC(=O)Nc2cncc(C(=O)c3cn(C(C)C)c4ccncc34)c2)n1 [Example 131, 2-(3,5-dimethyl-1H-pyrazol-1-yl)-N-(5-{[1-(propan-2-yl)-1H-pyrrolo[3,2-c]pyridin-3-yl]carbonyl}pyridin-3-yl)acetamide]",7.03
6,"CC(C)n1cc(C(=O)c2cncc(NC(=O)Cn3cccn3)c2)c2cnccc21 [Example 122, N-(5-{[1-(propan-2-yl)-1H-pyrrolo[3,2-c]pyridin-3-yl]carbonyl}pyridin-3-yl)-2(1H-pyrazol-1-yl)acetamide]",5.91
7,"Cc1cc(C(F)(F)F)nn1CC(=O)Nc1cncc(C(=O)c2cn(C(C)CO)c3ccncc23)c1 (single isomer, unassigned) [Example 77, N-(5-{[1-(1-hydroxypropan-2-yl)-1H-pyrrolo[3,2-c]pyridin-3-yl]carbonyl}pyridin-3-yl)-2-[5-methyl-3-(trifluoromethyl)-1H-pyrazol-1-yl]acetamide]",7.47
8,"CC(CO)n1cc(C(=O)c2cncc(NC(=O)Cn3cc(C(F)(F)F)cn3)c2)c2cncc(F)c21 (single isomer, unassigned) [Example 227, N-(5-{[7-fluoro-1-(1-hydroxypropan-2-yl)-1H-pyrrolo[3,2-c]pyridin-3-yl]carbonyl}pyridin-3-yl)-2-[4-(trifluoromethyl)-1H-pyrazol-1-yl]acetamide]",7.61
9,"CC(CO)n1cc(C(=O)c2cncc(NC(=O)Cc3cccc(C(F)(F)F)c3)c2)c2cncc(F)c21 (single isomer, unassigned) [Example 226, N-(5-{[7-fluoro-1-(1-hydroxypropan-2-yl)-1H-pyrrolo[3,2-c]pyridin-3-yl]carbonyl}pyridin-3-yl)-2-[3-(trifluoromethyl)phenyl]acetamide]",7.95
10,"CC(CO)n1cc(C(=O)c2cncc(NC(=O)Cc3ccc(C(F)(F)F)cc3)c2)c2cnccc21 (single isomer, unassigned) [Example 35, N-(5-{[1-(1-hydroxypropan-2-yl)-1H-pyrrolo[3,2-c]pyridin-3-yl]carbonyl}pyridin-3-yl)-2-[4-(trifluoromethyl)phenyl]acetamide]",7.06
11,"CC(CO)n1cc(C(=O)c2cncc(NC(=O)Cn3ccc(C4CC4)n3)c2)c2cncc(F)c21 (single isomer, unassigned) [Example 215, 2-(3-cyclopropyl-1H-pyrazol-1-yl)-N-(5-{[7-fluoro-1-(1-hydroxypropan-2-yl)-1H-pyrrolo[3,2-c]pyridin-3-yl]carbonyl}pyridin-3-yl)acetamide]",7.21
12,"CC(C)c1ccnn1CC(=O)Nc1cncc(C(=O)c2cn(C(C)C)c3ccncc23)c1 [Example 124, 2-(5-(propan-2-yl)-1H-pyrazol-1-yl]-N-(5-{[1-(propan-2-yl)-1H-pyrrolo[3,2-c]pyridin-3-yl]carbonyl}pyridin-3-yl)acetamide]",6.70
13,"CC(C)n1cc(C(=O)c2cncc(NC(=O)Cc3ncccn3)c2)c2cnccc21 [Example 119, N-(5-{[1-(propan-2-yl)-1H-pyrrolo[3,2-c]pyridin-3-yl]carbonyl}pyridin-3-yl)-2-(pyrimidin-2-yl)acetamide]",5.31
14,"Cc1cc(C(F)(F)F)nn1CC(=O)Nc1cncc(C(=O)c2cn(C(C)C)c3ccncc23)c1 [Example 121, 2-(5-methyl-3-(trifluoromethyl)-1H-pyrazol-1-yl]-N(5-{[1-(propan-2-yl)-1H-pyrrolo[3,2-c]pyridin-3-yl]carbonyl}pyridin-3-yl)acetamide]",7.84
15,"CC(CO)n1cc(C(=O)c2cc(NC(=O)Cc3cccc(C(F)(F)F)c3)ccn2)c2cnccc21 (single isomer, unassigned) [Example 18, 2-(3-trifluoromethylphenyl)-N-(2-{[1-(1-hydroxypropan-2-yl)-1H-pyrrolo[3,2-c]pyridin-3-yl]carbonyl}pyridin-4-yl)acetamide]",7.44
16,"CC(CO)n1cc(C(=O)c2cncc(NC(=O)Cn3cc(C(F)(F)F)nn3)c2)c2cncc(F)c21 (single isomer, unassigned) [Example 220, N-(5-{[7-fluoro-1-(1-hydroxypropan-2-yl)-1H-pyrrolo[3,2-c]pyridin-3-yl]carbonyl}pyridin-3-yl)-2-[4-(trifluoromethyl)-1H-1,2,3-triazol-1-yl]acetamide]",6.80
